This note sets out measurements from patent US20230348394A1, “COMPOSITIONS AND METHODS FOR TREATING MUSCULAR DYSTROPHIES” (The Regents of the University of California, priority 2020, published 2023).

The test system of one test is SSPN gene expression. Nature of the test: SSPN gene expression (qPCR) in dystrophin-deficient H2K mdx myotubes. Particulars: 0.5 to 50 μM. It counts as cell-based, murine. On the procedure: (§1) C2C12 cells (American Type Culture Collection) were grown at 37° C. with 5% CO2 in growth medium containing DMEM (Gibco) with 20% FBS (Sigma-Aldrich). Upon reaching 90-100% confluency, myoblasts were induced to differentiate by replacing the medium with differentiation medium consisting of DMEM with 2% horse serum (Sigma-Aldrich). Conditionally immortalized H2K WT and mdx myoblasts with a nonsense mutation in exon 23 of dystrophin were a gift from Terrance Partridge, Ph.D. (Children's National Medical Center, Washington, D.C.). […]
RNA from myotubes treated for 48 hrs was extracted from cells using Trizol-based (Thermo Fisher Scientific) phase separation, Chomczynski et al., Biotechniques. […] RNA concentrations were determined using a NanoDrop 1000 (Thermo Fisher Scientific) and 750 ng of RNA in a 20 Id reaction was reverse transcribed using iScript cDNA synthesis (Bio-Rad) with the following cycling conditions: 25° C. for 5 mins, 42° C. for 30 mins, 85° C. for 5 mins. […] For qPCR of human samples, TaqMan assays were used to quantify SSPN (assay ID Hs01025520m 1) and ACTB (assay ID Hs01060665_g1) with the following reaction conditions: 50° C. for 2 mins, 95° C. for 10 mins, 40 cycles of 95° C. for 15 seconds and 62° C. for 1 minute. […]
(Quantitative PCR measures a nucleic acid by following its amplification.)

The test system of the next test is SSPN mRNA. Put plainly: SSPN gene expression in wild-type C2C12 myotubes. It counts as cell-based, mouse. On the procedure:
as §1, with “D.C.). See, Morgan et al., Dev Biol. 1994; 162(2):486-98 Myoblasts were allowed to proliferate on 0.01% gelatin (Sigma-Aldrich) coated plates at 33° C. with 5% CO2 with growth medium containing DMEM, 20% HI-FBS (Invitrogen), 2% L-glutamine (Sigma-Aldrich), 2% chicken embryo extract (Accurate Chemical), 1% penicillin-streptomycin (Sigma-Aldrich), and 20 U/ml of fresh interferon gamma (Gibco).” for “D.C.).”
RNA from myotubes treated for 48 hrs was extracted from cells using Trizol-based (Thermo Fisher Scientific) phase separation, Chomczynski et al., Biotechniques. […] RNA concentrations were determined using a NanoDrop 1000 (Thermo Fisher Scientific) and 750 ng of RNA in a 20 Id reaction was reverse transcribed using iScript cDNA synthesis (Bio-Rad) with the following cycling conditions: 25° C. for 5 mins, 42° C. for 30 mins, 85° C. for 5 mins. For mouse qPCR, SsoFast EvaGreen Supermix (Bio-Rad), 400 nM of each optimized forward and reverse primer (SSPN F: 5′ […] 3′, SSPN R: 5′ […] 3′, BACT F: 5′ […] 3′, BACT R: 5′ […] 3′), and cDNA corresponding to 37.5 ng RNA were used to amplify cDNA measured by QuantStudio 5 Real-Time PCR System (Thermo Fisher Scientific) with the following reaction conditions: 55° C. for 2 mins, 95° C. for 2 mins, 40 cycles of 95° C. for 10 seconds and 62° C. for 30 seconds, and dissociation stage. […] Data was analyzed using the ddCT method and normalized to reference gene ACTB with vehicle-treated samples serving as the calibrator (relative expression of vehicle control=1). […]

SMILES strings stand for the structures.

On to `CCN(CC)c1ccc2cc(C(=O)Nc3ccc(C(=O)N4CCCCCC4)cc3)c(=O)oc2c1` [OT-9], for which the “concentration at which the concentration-dependent SSPN mRNA response peaked” value in the test with SSPN gene expression is 5.5 µM. Also, the “SSPN mRNA levels after compound removal” value in the test on SSPN mRNA (5 μM for 4 hours, 4, 24 and 48 hours after compound removal) is “returned to baseline levels”. In addition, in the test with SSPN mRNA (5 μM for 4 hours, immediately after compound removal (0h)), the “SSPN mRNA levels over the vehicle control” value amounted to 1.5 fold. For the same compound, the “SSPN mRNA levels” value with SSPN mRNA (5 μM, 48 hours) is “increased SSPN mRNA levels”.
